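Tested at 5 concentrations; 48 h exposure; 96-well plates; endpoints linearly interpolated, else capped at highest concentration. GI50: concentration for 50% inhibition of growth.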 Activity calls are given as the source filed them. Cut-off read from the data, not from the text of the source: active = GI50 up to about 1.1 µM and inactive = higher.
Legend:
Assay in all cases: NCI tumour cell line growth inhibition, 48 h
OVCAR-3 = tested on: OVCAR-3
HL-60 = tested on: HL-60
SF-295 = tested on: SF-295
LOX IMVI = tested on: LOX IMVI
COLO 205 = tested on: COLO 205
UACC-257 = tested on: UACC-257
MDA-MB-435 = tested on: MDA-MB-435
MDA-MB-231 = tested on: MDA-MB-231
UO-31 = tested on: UO-31
HCC 2998 = tested on: HCC 2998
SNB-19 = tested on: SNB-19
TK-10 = tested on: TK-10
NCI-H460 = tested on: NCI-H460
HCT-116 = tested on: HCT-116
MCF7 = tested on: MCF7
MDA-N = tested on: MDA-N
SR = tested on: SR
KM12 = tested on: KM12
Malme-3M = tested on: Malme-3M
Hs-578T = tested on: Hs-578T
A549 = tested on: A549
RXF 393 = tested on: RXF 393
OVCAR-4 = tested on: OVCAR-4
A498 = tested on: A498
SK-MEL-5 = tested on: SK-MEL-5
SK-MEL-28 = tested on: SK-MEL-28
NCI/ADR-RES = tested on: NCI/ADR-RES
IGROV-1 = tested on: IGROV-1
ACHN = tested on: ACHN
M14 = tested on: M14
SN12C = tested on: SN12C
SNB-75 = tested on: SNB-75
SF-539 = tested on: SF-539
EKVX = tested on: EKVX
786-0 = tested on: 786-0
SK-MEL-2 = tested on: SK-MEL-2
K562 = tested on: K562
SW-620 = tested on: SW-620
PC-3 = tested on: PC-3
CAKI-1 = tested on: CAKI-1
SK-OV-3 = tested on: SK-OV-3
DU-145 = tested on: DU-145
HOP-92 = tested on: HOP-92
CCRF-CEM = tested on: CCRF-CEM
HT-29 = tested on: HT-29
NCI-H23 = tested on: NCI-H23
OVCAR-8 = tested on: OVCAR-8
HCT-15 = tested on: HCT-15
RPMI-8226 = tested on: RPMI-8226
HOP-62 = tested on: HOP-62
U-251 = tested on: U-251
MOLT-4 = tested on: MOLT-4
T47D = tested on: T47D
OVCAR-5 = tested on: OVCAR-5
SF-268 = tested on: SF-268
NCI-H226 = tested on: NCI-H226
NCI-H522 = tested on: NCI-H522
UACC-62 = tested on: UACC-62
BT-549 = tested on: BT-549

In the case of `CCc1cc2c(c3c1CCCC3=O)CC1(C2)Cc2cc(CC)c3c(c2C1)C(=O)CCC3`, the GI50 (OVCAR-3) is reported as 86.3 µM (inactive), the GI50 (HL-60) is reported as 61 µM (inactive) and the GI50 (SF-295) is reported as > 100 µM (inactive). The GI50 (LOX IMVI) was > 100 µM (inactive), the GI50 (COLO 205) was > 100 µM (inactive) and the GI50 (UACC-257) was 57.4 µM (inactive). The GI50 (MDA-MB-435) was 47.2 µM (inactive), the GI50 (MDA-MB-231) was 36.5 µM (inactive) and the GI50 (UO-31) was > 100 µM (inactive). For the same compound, the GI50 (HCC 2998) was > 100 µM (inactive), the GI50 (SNB-19) was > 100 µM (inactive) and the GI50 (TK-10) was > 100 µM (inactive). For the same compound, the GI50 (NCI-H460) was 93.8 µM (inactive), the GI50 (HCT-116) was 61.1 µM (inactive) and the GI50 (MCF7) was > 100 µM (inactive). The GI50 (MDA-N) was > 100 µM (inactive), the GI50 (SR) was 24.1 µM (inactive) and the GI50 (KM12) was 47.2 µM (inactive). The GI50 (Malme-3M) was 25.3 µM (inactive), the GI50 (Hs-578T) was > 100 µM (inactive) and the GI50 (A549) was > 100 µM (inactive). For the same compound, the GI50 (RXF 393) was > 100 µM (inactive), the GI50 (OVCAR-4) was 73.6 µM (inactive) and the GI50 (A498) was > 100 µM (inactive). For the same compound, the GI50 (SK-MEL-5) was 54.3 µM (inactive), the GI50 (SK-MEL-28) was > 100 µM (inactive) and the GI50 (NCI/ADR-RES) was > 100 µM (inactive). The GI50 (IGROV-1) was > 100 µM (inactive), the GI50 (ACHN) was 66.4 µM (inactive) and the GI50 (M14) was > 100 µM (inactive). The GI50 (SN12C) was > 100 µM (inactive), the GI50 (SNB-75) was 30.5 µM (inactive) and the GI50 (SF-539) was > 100 µM (inactive). The GI50 (EKVX) was > 100 µM (inactive), the GI50 (786-0) was > 100 µM (inactive) and the GI50 (SK-MEL-2) was > 100 µM (inactive). The GI50 (K562) was 65.9 µM (inactive), the GI50 (SW-620) was > 100 µM (inactive) and the GI50 (PC-3) was 46.5 µM (inactive). The GI50 (CAKI-1) was 89.5 µM (inactive), the GI50 (SK-OV-3) was > 100 µM (inactive) and the GI50 (DU-145) was > 100 µM (inactive). For the same compound, the GI50 (HOP-92) was 57.9 µM (inactive), the GI50 (CCRF-CEM) was 26.7 µM (inactive) and the GI50 (HT-29) was 76.2 µM (inactive). For the same compound, the GI50 (NCI-H23) was > 100 µM (inactive), the GI50 (OVCAR-8) was > 100 µM (inactive) and the GI50 (HCT-15) was greater than 100 µM. The GI50 (RPMI-8226) was 46.9 µM (inactive), the GI50 (HOP-62) was > 100 µM (inactive) and the GI50 (U-251) was 87.5 µM (inactive). For the same compound, the GI50 (MOLT-4) was 35.2 µM (inactive), the GI50 (T47D) was > 100 µM (inactive) and the GI50 (OVCAR-5) was > 100 µM (inactive). The GI50 (SF-268) was > 100 µM (inactive), the GI50 (NCI-H226) was > 100 µM (inactive) and the GI50 (NCI-H522) was 62.8 µM (inactive).
For `SC1=NNC2(C(S)=N1)c1ccccc1-c1ccccc12`, the GI50 (HL-60) was > 10 µM (inactive), the GI50 (LOX IMVI) was > 10 µM (inactive) and the GI50 (COLO 205) was > 10 µM (inactive). For the same compound, the GI50 (UACC-257) was > 10 µM (inactive), the GI50 (MDA-MB-231) was > 10 µM (inactive) and the GI50 (UO-31) was 4.51 µM (inactive). The GI50 (HCC 2998) was > 10 µM (inactive), the GI50 (TK-10) was > 10 µM (inactive) and the GI50 (NCI-H460) was > 10 µM (inactive). The GI50 (MCF7) was 5.37 µM (inactive), the GI50 (SR) was > 10 µM (inactive) and the GI50 (KM12) was > 10 µM (inactive). The GI50 (Malme-3M) was > 10 µM (inactive), the GI50 (Hs-578T) was 0.394 µM (active) and the GI50 (A549) was > 10 µM (inactive). The GI50 (OVCAR-4) was > 10 µM (inactive), the GI50 (A498) was 0.697 µM (active) and the GI50 (SK-MEL-5) was > 10 µM (inactive). For the same compound, the GI50 (NCI/ADR-RES) was > 10 µM (inactive), the GI50 (IGROV-1) was > 10 µM (inactive) and the GI50 (M14) was > 10 µM (inactive). The GI50 (SN12C) was > 10 µM (inactive), the GI50 (SNB-75) was > 10 µM (inactive) and the GI50 (SF-539) was > 10 µM (inactive). The GI50 (UACC-62) was > 10 µM (inactive), the GI50 (EKVX) was > 10 µM (inactive) and the GI50 (786-0) was > 10 µM (inactive). The GI50 (K562) was > 10 µM (inactive), the GI50 (SW-620) was > 10 µM (inactive) and the GI50 (CAKI-1) was > 10 µM (inactive). The GI50 (SK-OV-3) was > 10 µM (inactive), the GI50 (DU-145) was > 10 µM (inactive) and the GI50 (HOP-92) was > 10 µM (inactive). The GI50 (CCRF-CEM) was > 10 µM (inactive), the GI50 (HT-29) was > 10 µM (inactive) and the GI50 (NCI-H23) was > 10 µM (inactive). For the same compound, the GI50 (OVCAR-8) was > 10 µM (inactive), the GI50 (HCT-15) was greater than 10 µM and the GI50 (RPMI-8226) was > 10 µM (inactive). The GI50 (HOP-62) was > 10 µM (inactive), the GI50 (U-251) was > 10 µM (inactive) and the GI50 (MOLT-4) was > 10 µM (inactive). The GI50 (T47D) was 4.83 µM (inactive), the GI50 (SF-268) was > 10 µM (inactive) and the GI50 (NCI-H226) was 8.81 µM (inactive). The GI50 (BT-549) was > 10 µM (inactive).

— ChEMBL document CHEMBL1201862, “PubChem BioAssay data set” (2004)
